Here are results for one compound from article PMC9423655, “Huntington’s disease phenotypes are improved via mTORC1 modulation by small molecule therapy” (PLoS ONE, 2022).

Experiment [1] concerns the target T1, Sestrin2/GATOR2 interaction (Homo sapiens, UniProt P58004).
T1 construct: endogenous in cells; host or cells: Flag-WDR24 293T (HEK293T) cells
T1 sequence (P58004 1-480): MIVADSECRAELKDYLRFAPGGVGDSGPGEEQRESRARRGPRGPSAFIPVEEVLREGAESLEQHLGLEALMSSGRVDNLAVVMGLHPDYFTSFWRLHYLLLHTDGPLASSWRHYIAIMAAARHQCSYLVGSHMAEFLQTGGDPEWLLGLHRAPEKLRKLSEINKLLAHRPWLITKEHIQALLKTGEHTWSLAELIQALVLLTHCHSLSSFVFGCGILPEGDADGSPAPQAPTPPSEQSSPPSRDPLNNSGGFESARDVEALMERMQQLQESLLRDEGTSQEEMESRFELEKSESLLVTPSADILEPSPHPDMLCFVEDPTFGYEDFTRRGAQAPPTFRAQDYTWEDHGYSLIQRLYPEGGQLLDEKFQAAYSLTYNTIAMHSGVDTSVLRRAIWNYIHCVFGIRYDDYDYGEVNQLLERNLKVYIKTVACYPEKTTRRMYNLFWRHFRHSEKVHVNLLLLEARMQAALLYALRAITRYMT
In words: Intact cells-based Sestrin2/GATOR2 protein-protein interaction assay, Flag-WDR24 293T cells. Conditions: 10 minutes. It counts as cell-based. The procedure: Flag-WDR24 293T cells were washed and placed in leucine-free DMEM supplemented 10% dFBS for 50 minutes followed by treatment with NV-5297, leucine or vehicle for 10 minutes. Cells were rinsed once with ice-cold PBS and immediately lysed with Triton lysis buffer (1% Triton, 10 mM β-glycerol phosphate, 10 mM pyrophosphate, 40 mM Hepes pH 7.4, 2.5 mM MgCl2 and 1 tablet of EDTA-free protease inhibitor). The cell lysates were cleared by centrifugation at 13,200 rpm at 4°C in a microcentrifuge for 10 minutes. Prior to immunoprecipitations, an aliquot of lysate was taken for SDS-PAGE and immunoblotting for pS6K1, S6K1 and tubulin. For anti-FLAG immunoprecipitations, the FLAG-M2 affinity gel was washed 3 times with Triton lysis buffer, and 30 μl of a 50/50 slurry of the FLAG-M2 affinity gel was then added to approximately 2 mg of clarified cell lysates and incubated with rotation for 3 hours at 4°C. Following immunoprecipitation, the beads were washed one time with Triton wash buffer containing 500 mM NaCl. Immunoprecipitated proteins were denatured, resolved by SDS-PAGE, and analyzed by immunoblotting.
Next, Sestrin2/GATOR2 protein-protein interactions in response to NV-5297 were measured using cell-free assays and in vitro. For this, HEK293T cells stably expressing flag-WDR24, a component of GATOR2 [44], were used. The cell-free assays utilized Sestrin2/GATOR2 complexes immunoprecipitated from amino acid-starved cells with an anti-flag antibody.

For the next experiment, the system named is N171-82Q HD mice. Nature of the experiment: Chronic 6-week treatment: echocardiography and heart weight. It counts as in vivo. The conditions noted are these: N171-82Q mice, 160 mg/kg daily 6 weeks. From the text: Animals were sacrificed by live decapitation one hour after the last oral dosing. Whole hearts were excised, blot-dried and weighed on an analytical balance. The heart was bisected transversely and the apical halves was preserved for cardiomyocyte and fibrosis staining. Left tibias were isolated and measured with an electronic caliper. The brain left hemisphere was preserved for MSN size measurement. The brain right hemisphere was microdissected and the medial pre-frontal cortex, striatum, cortex, hippocampus and cerebellum were collected.
Mice were anesthetized with 2% isoflurane and restrained on a stage with electrocardiogram (EKG) sensors. Transthoracic echocardiograms were performed using the Vevo 3100 Imaging System with a linear array MX550D transducer. Images were acquired by an experienced echocardiographer and then analyzed offline using the Vevo LAB analysis software. Parasternal long axis views and short axis views were used to assess left ventricular function. Measurements were performed to evaluate left ventricular dimensions during both systole and diastole of the cardiac cycle. The Vevo LAB left ventricle [LV] analysis tool, LV trace, was used to calculate cardiac output [CO] (heart rate ∙ stroke volume), fractional shortening [FS] (ventricle diameter at the end of the diastole–ventricle diameter at the end of the systole), ejection fraction [EF] (percentage of blood ejected by the left ventricle by heart beat), stroke volume (SV) (blood volume ejected from the left ventricle per beat), heart rate [HR] (bpm), left ventricular mass [LVmass], dimensions and volumes. Both imaging and analysis were performed by an operator blinded to the mice experimental treatment.
Fig 5 Oral dosing with NV-5297 over 6 weeks improves cardiac function and activates the mTORC1 pathway. […] (E) Quantification of the immunoblots for homogenized heart isolated 1 hour after oral dosing with NV-5297 (160 mg/kg; n = 14) normalized to loading control levels and further normalized to vehicle (Veh) treated mice (n = 15). […]

A further experiment concerns mTORC1 pathway in heart. Nature of the experiment: Chronic 6-week treatment: heart immunoblots. It counts as in vivo. The conditions noted are these: N171-82Q mice, 160 mg/kg daily 6 weeks, 1 hour after dosing. As for the experimental part: Specific regions of the brain and heart were homogenized using a Next Advance Bullet Blender Storm in Lysis Buffer (Cell lysis buffer: 1% Triton X-100, 50 mM HEPES pH 7.4, 100 mM sodium chloride, 2 mM EDTA, 10 mM Beta-glycerophosphate, 10 mM Sodium pyrophosphate, and 1 protease inhibitor) at 4°C. Lysates were cleared by centrifugation at 13,200 rpm at 4°C for 10 minutes. Equal amounts of total protein from each sample were denatured and, resolved by SDS-PAGE. Membranes were imaged using the LI-COR imaging system. Proteins levels are normalized to tubulin, actin or GAPDH levels and further normalized to vehicle treated mice for each tissue.
Fig 5 Oral dosing with NV-5297 over 6 weeks improves cardiac function and activates the mTORC1 pathway. (A) Representative M-mode echocardiograms from transthoracic echocardiography at 6 weeks and 12 weeks of vehicle and NV-5297 treated N171-82Q males. (B) Heart weight corrected for the animal’s standard length (tibia length) at 12 weeks. (C) Left ventricular measurements obtained by transthoracic echocardiography by deducting the end treatment (12 weeks) from the baseline (6 weeks) measurements. Variation in cardiac output [CO], ejection fraction [EF], fractional shortening [FS], stroke volume (SV) and Heart rate [HR]. (D) Representative immunoblots for normalized phosphorylated S6 (^S240/244pS6), S6, phosphorylated Akt (^S437pAkt), Akt, phosphorylated mTOR (^S2448pmTOR), mTOR, phosphorylated 4E-BP1 (^Thr37/46p4E-BP1), 4E-BP1 and Actin in homogenized heart. (E) Quantification of the immunoblots for homogenized heart isolated 1 hour after oral dosing with NV-5297 (160 mg/kg; n = 14) normalized to loading control levels and further normalized to vehicle (Veh) treated mice (n = 15). Data are presented as mean ± SEM. *P ≤ 0.05, **P ≤ 0.01, ***P ≤ 0.001 (unpaired Kruskal-Wallis test with Dunn’s multiple comparison test [B], unpaired one-tailed Student’s t-tests [C, E pmTOR] with a Welch’s correction [pS6/S6, pmTOR/mTOR] or a Mann-Whitney test [pAkt/Akt, p4E-BP1/4E-BP1]).

On to `CC(C)(C[C@H](N)C(=O)O)C(F)(F)F` [NV-5297, (S)-2-amino-5,5,5-trifluoro-4,4-dimethylpentanoic acid], for which the “Sestrin2/GATOR2 interaction (GATOR2-associated Sestrin2)” value in experiment [1] (added to cell cultures, leucine-starved flag-WDR24 HEK293T cells) was “disrupted the Sestrin2/GATOR2 interaction in a dose-dependent manner”. Moreover, in experiment [1] (leucine-starved flag-WDR24 HEK-293T cells, S1C Fig), the “p70S6K1 (T389 pS6K1) level” value is “increased p70S6K1 in a dose-dependent manner”. In the experiment on N171-82Q HD mice, the heart mass entry is “no discernable effect”. In the experiment with N171-82Q HD mice (echocardiography), the “ejection fraction compared to vehicle” value is listed as “increased” and the “fractional shortening compared to vehicle” value is given as “increased”. Moreover, in the experiment with mTORC1 pathway in heart, the “heart p4E-BP1 level versus controls” value is reported as “elevated”, the “heart pS6 level versus controls” value was “elevated” and the “heart pmTOR level versus controls” value is reported as “elevated”.
